According to patent US20230003721A1, “MITOTHERAPEUTICS FOR THE TREATMENT OF BRAIN DISORDERS” (The University of Florida Research Foundation, Inc., priority 2019, published 2023):
Structures can show the parent of a compound that is named as a salt.

Tests used:
primary neurons [1] = assay: CellTiter-Glo luminescence-based ATP assay; format: cell-based, mouse; settings: for ATP: ATP orthogonal screen, 24 h; for EC50 / Emax: Mus musculus, Primary neuron, dose response; for EC50: 15 concentrations from 6 nM to 100 uM; for Emax: maximal percent increase relative to in-plate DMSO controls, read-out: ATP (Effect-size)
Description: Measurement of ATP production. The total amount of ATP produced by cultured primary neurons was measured by CellTiter-Glo Luminescent Cell Viability Assay (Promega). A recombinant luciferase enzyme catalyzed the mono-oxygenation of luciferin while hydrolyzing ATP produced by the cells and emitting light. We followed the manufacturer's protocol with primary neurons on DIV14.
(§1) A CLARIOstar (BMG LABTECH) microplate reader was used to measure fluorescence of TMRM and luminescence produced from the ATP.
(§2) Mitochondrial membrane potential (Δψm) and luminescence-based ATP assays. […] Changes of ΔΨm in each well were monitored using the mitochondrial-specific, fluorescent dye TMRM (tetramethyl rhodamine, methyl ester; Molecular Probes) and measured using a CLARIOstar plate reader. […] This concentration was used throughout our experiments. […] Wells in columns 1 and 24 were not loaded with TMRM; these served to measure background signal which was subtracted from the wells to which TMRM was added. To measure the total ATP levels in neurons we utilized the CellTiter-Glo® luminescence-based ATP assay (Promega). DIV13 primary neurons were cultured for 24 h with either DMSO carrier or compound treatment, followed by removing 55 μl culture medium from each well. Plates were maintained at room temperature for 25 m, and 25 μl of CellTiter-Glo® Reagent with the substrate luciferin was then added to each well (Promega). Plates were covered with aluminum foil and shaken vigorously on an orbital shaker for 10 m at 200 rpm and maintained at room temperature for an additional 2 m in dark before being read with the plate reader set to the luminescence mode.
Compound library and hit picking rules. We screened 2400 compounds from the MicroSource Spectrum library. […] FIGS. 13A-13E provide details of the assays used from which hit picking rules were made. In essence, the average fluorescence for each compound in the TMRM assay was determined and compared to the average fluorescence for compounds in the population on each assay plate to produce a Z-score. The Z-scores for each individual compound assayed across the four replicate plates was then averaged. Because of significant well location effects (outer rows) on each assay plate (FIG. 13G), we selected primary hits as enhancing well fluorescence above the μplate by 3σplate for inner row wells (rows C-N, columns 3-22), and by 2.5σplate for outer row wells (rows A, B, O, P; columns 3-22) (FIG. 14C-D). […] All orthogonal assays employed inner wells of the 384-well plates.

primary neurons [2] = assay: TMRM fluorescence assay of inner mitochondrial membrane potential (ΔΨm); settings: for TMRM Primary: primary screen; for TMRM Primary / hit in TMRM primary screen when assayed at 4 h: 12.5 μM; for TMRM Primary / TMRM Rescreen: 24 h; for Emax / EC50: Mus musculus, Primary neuron; for Emax: read-out: TMRM (Effect-size); for EC50: read-out: TMRM-EC50
Description: Mitochondrial dyes. To assay the electrochemical potential across the inner mitochondrial membrane of cultured cells, we used the cell-permeant dye tetramethylrhodamine methyl ester (TMRM). For co-localization studies with Mt-GFP, TMRM was used at 20 nM on DIV14 and incubated for 30 min prior to imaging. For the orthogonal screen of compounds, TMRM was added to primary neurons on DIV13 at 10 nM, one hr prior to pintooling selected compounds, and incubated for 24 hr. Cells were washed 2× with pre-warmed fresh feeding media without B27 before measurements with a plate reader.
as §1, §2
Compound library and hit picking rules. We screened 2400 compounds from the MicroSource Spectrum library. […] FIGS. 13A-13E provide details of the assays used from which hit picking rules were made. In essence, the average fluorescence for each compound in the TMRM assay was determined and compared to the average fluorescence for compounds in the population on each assay plate to produce a Z-score. The Z-scores for each individual compound assayed across the four replicate plates was then averaged.

| SMILES | ATP (primary neurons [1]) | TMRM Primary (primary neurons [2]) | TMRM Rescreen (primary neurons [2]) | hit in TMRM primary screen when assayed at 4 h (primary neurons [2]) | EC50 (primary neurons [1]) | Emax (primary neurons [1]) | Emax (primary neurons [2]) | EC50 (primary neurons [2]) |
| --- | --- | --- | --- | --- | --- | --- | --- | --- |
| CC1=C2C[C@H]3[C@@H](CC=C4C[C@@H](O)CC[C@@]43C)[C@@H]2CC[C@]12O[C@@H]1C[C@H](C)CN[C@H]1[C@H]2C [cyclopamine] | 5.15 Z-scores | 3.74 Z-scores | 8.14 Z-scores | – | – | – | – | – |
| CC(C)c1ccc2c(c1)CC[C@H]1[C@](C)(C(N)=O)CCC[C@]21C [dehydroabietamide] | 4.15 Z-scores | 3.42 Z-scores | 5.12 Z-scores | – | – | – | – | – |
| CC(=O)OCC(=O)[C@H]1CC[C@H]2[C@@H]3CCC4=CC(=O)CC[C@]4(C)[C@H]3CC[C@]12C [desoxycorticosterone acetate] | 3.62 Z-scores | 2.81 Z-scores | 1.08 Z-scores | desoxycorticosterone acetate* | – | – | – | – |
| CC(C)NC[C@@H](O)COc1cccc2ccccc12.Cl [dexpropranolol hydrochloride [R(+)]] | 6.22 Z-scores | 4.37 Z-scores | 4.79 Z-scores | – | – | – | – | – |
| CCCCOc1cc(C(=O)NCCN(CC)CC)c2ccccc2n1 [dibucaine hydrochloride] | 6.22 Z-scores | 3.83 Z-scores | 6.82 Z-scores | – | – | – | – | – |
| CN(C)CCOC(c1ccccc1)c1ccccc1.Cn1c(=O)c2[nH]c(Cl)nc2n(C)c1=O [dimenhydrinate] | 4.94 Z-scores | 3.98 Z-scores | 4.31 Z-scores | – | – | – | – | – |
| O=C(Nc1ccccc1)OCC(CN1CCCCC1)OC(=O)Nc1ccccc1 (centres unmarked) [diperodon hydrochloride] | 8.02 Z-scores | 3.75 Z-scores | 6.07 Z-scores | – | – | – | – | – |
| COc1cc2nc(N3CCN(C(=O)C4COc5ccccc5O4)CC3)nc(N)c2cc1OC (centres unmarked) [doxazosin mesylate] | 4.68 Z-scores | 4.39 Z-scores | 5.94 Z-scores | – | – | – | – | – |
| COc1cccc2c1C(=O)c1c(O)c3c(c(O)c1C2=O)C[C@@](O)(C(=O)CO)C[C@@H]3O[C@H]1C[C@H](N)[C@H](O)[C@H](C)O1 [doxorubicin] | 4.00 Z-scores | 4.02 Z-scores | 5.05 Z-scores | – | – | – | – | – |
| CCN(CC)CCOC(=O)C(c1ccccc1)C1CCCCC1 (centres unmarked) [drofenine hydrochloride] | 4.84 Z-scores | 3.68 Z-scores | 5.96 Z-scores | – | – | – | – | – |
| C[C@]12CC[C@@H]3c4ccc(O)cc4CC[C@H]3[C@@H]1CC[C@@H]2OC(=O)CCC1CCCC1 [estradiol cypionate] | 2.98 Z-scores | 2.59 Z-scores | 4.67 Z-scores | – | – | – | – | – |
| COc1ccc2c(c1)CC[C@@H]1[C@@H]2CC[C@]2(C)[C@@H](O)CC[C@@H]12 [estradiol methyl ether] | 4.80 Z-scores | 3.74 Z-scores | 3.55 Z-scores | – | – | – | – | – |
| CC12CCC3c4ccc(OCc5ccccc5)cc4CCC3C1C[C@@H](O)[C@@H]2O (some centres unmarked) [estriol benzyl ether] | 2.03 Z-scores | 3.17 Z-scores | 6.67 Z-scores | – | – | – | – | – |
| CC(=O)Oc1ccc2c(c1)CCC1C2CC[C@]2(C)C(=O)CCC12 (some centres unmarked) [estrone acetate] | 3.36 Z-scores | 3.26 Z-scores | 5.89 Z-scores | – | – | – | – | – |
| C=CCc1ccc(O)c(OC)c1 [eugenol] | 4.39 Z-scores | 4.17 Z-scores | 3.10 Z-scores | eugenol* | – | – | – | – |
| CCOC(=O)C1=C(C)NC(C)=C(C(=O)OC)C1c1cccc(Cl)c1Cl (centres unmarked) [felodipine] | 5.08 Z-scores | 3.80 Z-scores | 2.41 Z-scores | – | – | – | – | – |
| C[C@]12CC[C@@H]3c4ccc(O)cc4C[C@@H](CCCCCCCCC[S+]([O-])CCCC(F)(F)C(F)(F)F)[C@H]3[C@@H]1CC[C@@H]2O (some centres unmarked) [fulvestrant] | 4.27 Z-scores | 3.31 Z-scores | 6.27 Z-scores | – | – | – | – | – |

| SMILES | ATP (primary neurons [1]) | TMRM Primary (primary neurons [2]) | TMRM Rescreen (primary neurons [2]) | hit in TMRM primary screen when assayed at 4 h (primary neurons [2]) | EC50 (primary neurons [1]) | Emax (primary neurons [1]) | Emax (primary neurons [2]) | EC50 (primary neurons [2]) |
| --- | --- | --- | --- | --- | --- | --- | --- | --- |
| COc1cc(O)c2c(=O)cc(C)oc2c1CC=C(C)C [heteropeucenin, methyl ether] | 5.92 Z-scores | 3.45 Z-scores | 4.33 Z-scores | – | – | – | – | – |
| CCN(CC)CCNc1ccc(CO)c2sc3ccccc3c(=O)c12 [hycanthone] | 4.61 Z-scores | 4.40 Z-scores | 5.48 Z-scores | – | – | – | – | – |
| OCCOCCN1CCN(C(c2ccccc2)c2ccc(Cl)cc2)CC1 (centres unmarked) [hydroxyzine pamoate] | 5.22 Z-scores | 3.15 Z-scores | 6.04 Z-scores | – | – | – | – | – |
| O=C([O-])Cc1c[nH]cn1.[Na+] [imidazol-4-ylacetic acid sodium salt] | 4.61 Z-scores | 3.58 Z-scores | 4.56 Z-scores | imidazol-4-ylacetic acid sodium salt* | – | – | – | – |
| CN(C)CCCN1c2ccccc2CCc2ccccc21 [imipramine hydrochloride] | 5.10 Z-scores | 3.31 Z-scores | 0.91 Z-scores | – | – | – | – | – |
| OCc1c[nH]c2ccccc12 [indole-3-carbinol] | 6.52 Z-scores | 3.15 Z-scores | 6.27 Z-scores | – | – | – | – | – |
| O=C(c1ccc(F)cc1)C1CCN(CCn2c(=O)[nH]c3ccccc3c2=O)CC1 [ketanserin tartrate] | 5.68 Z-scores | 5.62 Z-scores | 5.26 Z-scores | – | 160 nM | 19.1% | 30% | 1300 nM |
| CN1CCC(=C2c3ccccc3CC(=O)c3sccc32)CC1 [ketotifen fumarate] | 5.58 Z-scores | 3.91 Z-scores | 3.98 Z-scores | ketotifen fumarate* | – | – | – | – |
| C=C[C@@](C)(O)CC[C@H]1C(=C)C[C@H](OC(C)=O)[C@H]2C(C)(C)CCC[C@]12C [larixol acetate] | 2.67 Z-scores | 3.96 Z-scores | 5.67 Z-scores | – | – | – | – | – |
| CCN(CC)C(=O)[C@@]1(c2ccccc2)C[C@H]1CN [levomilnacipran hydrochloride] | 3.87 Z-scores | 3.26 Z-scores | 3.53 Z-scores | – | – | – | – | – |
| CCN(CC)CC(=O)Nc1c(C)cccc1C [lidocaine hydrochloride] | 6.98 Z-scores | 3.06 Z-scores | 4.69 Z-scores | – | 110 nM | 15.8% | 17.4% | 1890 nM |
| CN1[C@@H](CC(=O)c2ccccc2)CCC[C@H]1C[C@H](O)c1ccccc1 [lobeline hydrochloride] | 3.67 Z-scores | 6.62 Z-scores | 6.75 Z-scores | – | – | – | – | – |
| CC(=O)O[C@]1(C(C)=O)CC[C@H]2[C@@H]3C[C@H](C)C4=CC(=O)CC[C@]4(C)[C@H]3CC[C@@]21C [medroxyprogesterone acetate] | 2.64 Z-scores | 3.66 Z-scores | 3.67 Z-scores | medroxyprogesterone acetate* | – | – | – | – |
| OC(c1cc(C(F)(F)F)nc2c(C(F)(F)F)cccc12)C1CCCCN1 (centres unmarked) [mefloquine] | 5.09 Z-scores | 3.75 Z-scores | 5.54 Z-scores | – | – | – | – | – |
| CCCNC(C)(C)COC(=O)c1ccccc1 [meprylcaine hydrochloride] | 6.05 Z-scores | 3.56 Z-scores | 5.91 Z-scores | – | – | – | – | – |
| CCN(CC)CCOC(=O)C(Cc1cccc2ccccc12)CC1CCCO1 (centres unmarked) [nafronyl oxalate] | 5.17 Z-scores | 4.08 Z-scores | 5.89 Z-scores | nafronyl oxalate* | – | – | – | – |
